“And” between values parts separate entries of the source, which are not always exact repeats. Equal values may be shown once.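 Test compounds were applied to cells in 96-well plates for 48 hours at 5 doses. GI50: concentration for 50% inhibition of growth. The concentration for full growth arrest is given as TGI.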 Where a SMILES comes first, the peptide text is derived from it. [ ]: non-standard residue; d: D form. NMeY = CN[C@@H](Cc1ccc(O)cc1)C(=O)O; dNMeF = CN[C@H](Cc1ccccc1)C(=O)O; Sar = CNCC(=O)O
Tested on: MDA-MB-468 breast
Test: NCI-60 cell line screen, 48 h

| Compound | GI50 | TGI |
| --- | --- | --- |
| CC[C@H](C)[C@@H]1NC(=O)[C@H](Cc2ccc(O)cc2)N(C)C(=O)[C@H](Cc2ccccc2)NC(=O)CN(C)C(=O)[C@@H]2CCCN2C(=O)[C@@H](Cc2ccccc2)N(C)C(=O)[C@H](CC(C)C)NC1=O (cyclo(F[NMeY]IL[dNMeF]P[Sar])) | 0.367 µM | 2.82 µM |
| COc1cc(Cn2ccc3c2-c2oncc2CC3)cc(OC)c1 | 0.84 µM | 7 µM |
| CNC(=O)c1cc(-n2ccc3cc(NC(=O)Nc4ccc(N5CCN(C)CC5)c(C(F)(F)F)c4)ccc32)ccn1 | 3.48 µM | 7.57 µM |
| COc1ccc(/C=C/C(=O)c2ccc3cc(OC)c(OC)cc3c2)cc1OC | 2.68 µM | 10.2 µM |
| Cc1ccc2c(Nc3cccc(Cl)c3F)ncc(NC(=O)c3csc4c(N)ncnc34)c2c1 | > 100 µM | > 100 µM |
| CCCCCCCCCCCC[n+]1ccccc1 | 0.252 µM | 2.02 µM |
| O=C1Nc2cc(Cl)ccc2/C1=C\c1ccc(OCc2ccc(Br)cc2F)cc1 | 2.13 µM | 5.21 µM |
| c1ccc(-c2nnc(Nc3ccc4c(c3)OCCO4)o2)c(NCc2ccncc2)c1 | 0.0953 µM | 0.528 µM |
| Cc1ncc(C(=O)Nc2ccc(CN3CCN(C)CC3)c(C(F)(F)F)c2)cc1C#Cc1cnc(N)c2ncccc12 | 1.1 µM | 2.58 µM |
| CO[C@H]1C[C@@H]2CC[C@@H](C)[C@@](O)(O2)C(=O)C(=O)N2CCCC[C@H]2C(=O)O[C@H]([C@H](C)C[C@@H]2CC[C@@H](OP(C)(C)=O)[C@H](OC)C2)CC(=O)[C@H](C)/C=C(\C)[C@@H](O)[C@@H](OC)C(=O)[C@H](C)C[C@H](C)/C=C/C=C/C=C/1C | < 0.01 µM | 17.1 µM |
| CC1(C)N=C(N)N=C(N)N1c1cccc(CCCCc2ccccc2)c1 | 0.149 µM | 13.8 µM |
| COc1ccc2[nH]c(=O)c(/C=C/C(=O)/C=C/c3ccc(O)c(OC)c3)cc2c1 | 1.37 µM | 4.58 µM |
| COc1cccc(-n2ncc3c(N/N=C/c4ccc(S(C)(=O)=O)cc4)ncnc32)c1 | 3.66 µM | 16.5 µM |
| COc1ccc(-c2cc(-c3cn[nH]c3-c3ccccn3)ccn2)cc1 | > 25 µM | > 25 µM |
| C/C(=C(/c1ccc(O)cc1)c1ccc(OCCN2CCCCCC2)cc1)c1ccccc1 | 41.2 µM | > 100 µM |
| O=C1c2ccccc2-c2n[nH]c3cccc1c23 | 17.3 µM | > 100 µM |
| CCOC(=O)c1ccc(Nc2sc(C(=O)c3cccc([N+](=O)[O-])c3)c(N)c2C#N)cc1 | 0.222 µM | 4.53 µM |
| C[C@H](Nc1ncnc2ccc(-c3cnc(Cl)c(NS(C)(=O)=O)c3)cc12)c1ccccc1 | 0.111 µM | 0.841 µM |
| Cc1cc2c3ccccc3ccc2[n+]2ccccc12 | 0.524 µM | 2.13 µM |
| Nc1ccn(C2CC(O)C(CO)O2)c(=O)n1 (configuration not stated) | > 5000 µM | > 5000 µM |
| Cc1ccc(-c2cc3nc(C(Cl)Cl)nc(-c4cccnc4)n3n2)cc1 | 0.407 µM | 2.13 µM |
| CC[C@H](C)[C@H](NC(=O)Nc1ccccc1)C(=O)N(C)[C@H](C[C@@H](OC(C)=O)c1nc(C(=O)N[C@@H](Cc2ccccc2)C[C@H](C)C(=O)OC)cs1)C(C)C | 0.514 µM | 7.22 µM |

| Compound | GI50 | TGI |
| --- | --- | --- |
| O=C(NC(=S)NNC(=S)NNc1ccccc1)c1ccccc1 | 8.92 µM | > 100 µM |
| CCOC(=O)Cn1c(C)c(/C=N/NC(=O)c2cc3c(ccc4ccccc43)o2)c2ccccc21 | 0.326 µM | 1.34 µM |
| Nc1c(C(=O)c2cccc(C#CCN3CCOCC3)c2)cnn1-c1ccc(F)cc1 | 9.82 µM | > 25 µM |
| ClC1=NC(Cl)C(Cl)=N/C1=N\c1ncn[nH]1 (configuration not stated) | 1.6 µM | 3.39 µM |
| Cc1ccc(N=Nc2c(N)nn(-c3ccccc3)c2N)cc1 | 0.613 µM | > 100 µM |
| CC(=O)OC1CCC2(C)C(CCC3C4CC=C(C(C)=O)C4(C)OC(=O)CC32)C1 (configuration not stated) | 1.64 µM | 3.74 µM |
| N#CSCc1c(Cl)cccc1Cl | 3.82 µM | > 100 µM |
| Nc1nc(N)c2c(ccc3nccc32)[nH]1 | 3.28 µM | 21.3 µM |
| CCN(C(=O)CCl)C(C)(C)C(SSSC(c1ccc(Cl)cc1)C(C)(C)N(CC)C(=O)CCl)c1ccc(Cl)cc1 (configuration not stated) | 1.97 µM | 5.39 µM |
| Nc1c(C(=O)c2cccc(CCC3(O)CCCC3)c2)cnn1-c1ccc(F)cc1 | 5.97 µM | > 25 µM |
| C/C(=N\NC(=O)c1ccccc1O)c1cccc(/C(C)=N/NC(=O)c2ccccc2O)n1 | 0.317 µM | > 100 µM |
| ICCC(c1ccccc1)(c1ccccc1)c1ccccc1 | 3.17 µM | 13.3 µM |
| CC1(C)CC(=O)c2c(ccc(C(=O)C[C@H](N)CO)c2N)O1 | – | 17.5 µM and 5.83 µM |
| CN(C)C(=O)c1cc2cnc(Nc3ccc(-c4csc5c(=O)cc(N6CCNCC6)oc45)cc3)nc2n1C1CCCC1 | 0.482 µM | 2.53 µM |
| C#C[C@@]1(O)[C@@H](CO)O[C@@H](n2ccc3c(N)ncnc32)[C@@H]1O | 1.3 µM | 3.33 µM |
| O=c1oc2ccc(Cl)cc2c(=O)n1-c1cc(C(F)(F)F)cc(C(F)(F)F)c1 | 0.236 µM | 0.754 µM |
| N#Cc1cccc(/C=C(/C(=O)c2ccccc2)c2ccccc2)c1 | 2.3 µM | 7.63 µM |
| CC1(C)CC(OCCCC[P+](c2ccccc2)(c2ccccc2)c2ccccc2)CC(C)(C)N1O | 0.331 µM | 2.87 µM |
| CN1CCN(Cc2ccc(NC(=O)c3nc4ccc5[nH]ncc5c4c4c3CCC4)cc2C(F)(F)F)CC1 | 0.936 µM | 2.08 µM |
| CC1(O)CC2(O)C=CC3=C(C(=O)c4cccc(O)c4C3=O)C2(O)C(=O)C1O (configuration not stated) | 0.735 µM | 2.09 µM |
| C=CC(=O)N1CCC([C@@H]2CCNc3c(C(N)=O)c(-c4ccc(Oc5ccccc5)cc4)nn32)CC1 | 0.057 µM | 0.711 µM |
| COc1ccc2c(c1)sc1nc(-c3ccccc3)c(-c3ccc(O)c(OC)c3)n12 | 24.4 µM | > 100 µM |
